# Data taken from PubChem BioAssay AID651817 (Broad Institute, 2012).
# Calls of active or inactive are those of the source.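 The calls were made as follows: active = compound whose fitted luminescence drop, meaning cytotoxicity, reaches half effect at most twice its top valid tested dose; inconclusive = flat curve with a moderate drop, or an unreliable fit; inactive = rise instead of drop, flat response, or weaker potency.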
# Experiment: mouse fibroblast viability loss – cell-based, cherry-pick samples, set 2, cytotoxicity control for T. cruzi growth inhibitor project, dose response (AID 651817)
# Conditions: NIH/3T3 viability, ATP luminescence (CellTiter-Glo), 90 h; at 4.2 µM (top of the series)
row,SMILES,"activity change, negative = cytotoxicity"
1,C[C@@H]1CN([C@H](C)CO)C(=O)c2cccc(NC(=O)Nc3ccc(C(F)(F)F)cc3)c2O[C@@H]1CN(C)Cc1ccc(Cl)c(Cl)c1,37.5% (inactive)

# Same assay, conditions: NIH/3T3 viability, ATP luminescence (CellTiter-Glo), 90 h; at 18 µM (top of the series)
row,SMILES,"activity change, negative = cytotoxicity"
1,C[C@H]1CN([C@@H](C)CO)C(=O)Cc2cc(NS(=O)(=O)c3ccc(Cl)cc3)ccc2O[C@@H]1CN(C)S(=O)(=O)c1ccc(Cl)cc1,-1.6% (inactive)

# Same assay, conditions: NIH/3T3 viability, ATP luminescence (CellTiter-Glo), 90 h; at 19.5 µM (top of the series)
row,SMILES,"activity change, negative = cytotoxicity"
1,Cc1ccc(S(=O)(=O)Nc2ccc3c(c2)CC(=O)N([C@H](C)CO)C[C@H](C)[C@H](CN(C)Cc2ccccc2)O3)cc1,-17.1% (inactive)
2,C[C@H]1CN([C@@H](C)CO)C(=O)c2cccc(NC(=O)c3ccncc3)c2O[C@H]1CN(C)Cc1ccc(-c2ccccc2)cc1,18.2% (inactive)
3,C[C@H]1CN([C@@H](C)CO)C(=O)c2cccc(NC(=O)c3ccncc3)c2O[C@H]1CN(C)Cc1ccc(C(F)(F)F)cc1,-30.7% (inactive)
4,C[C@@H]1CN([C@@H](C)CO)C(=O)c2cccc(NC(=O)c3nc4ccccc4s3)c2O[C@@H]1CN(C)Cc1ccc2c(c1)OCO2,0.748% (inactive)
5,COc1ccc(CN(C)C[C@H]2Oc3c(NC(=O)c4ccncc4)cccc3C(=O)N([C@H](C)CO)C[C@@H]2C)cc1,23.4% (inactive)
6,C[C@H]1CN([C@@H](C)CO)C(=O)c2cccc(NC(=O)c3ccncc3)c2O[C@@H]1CN(C)Cc1ccc2c(c1)OCO2,-3.23% (inactive)
7,COc1ccc(CN(C)C[C@H]2Oc3c(NC(=O)Nc4ccc(C(F)(F)F)cc4)cccc3C(=O)N([C@@H](C)CO)C[C@H]2C)cc1,-11.1% (inactive)
8,Cc1ccc(S(=O)(=O)N(C)C[C@@H]2Oc3c(NC(=O)c4nc5ccccc5s4)cccc3C(=O)N([C@@H](C)CO)C[C@H]2C)cc1,-13.6% (inactive)
9,Cc1ccc(S(=O)(=O)N(C)C[C@@H]2Oc3ccc(NS(=O)(=O)c4ccccc4)cc3CC(=O)N([C@H](C)CO)C[C@@H]2C)cc1,3.11% (inactive)
10,C[C@H](CO)N1C[C@H](C)[C@H](CN(C)CC2CCCCC2)Oc2c(NC(=O)c3ccncc3)cccc2C1=O,2.09% (inactive)
11,C[C@H](CO)N1C[C@H](C)[C@@H](CN(C)S(=O)(=O)c2ccc(Cl)cc2)Oc2ccc(NS(=O)(=O)c3ccccc3)cc2CC1=O,-20.3% (inactive)
12,C[C@H]1CN([C@@H](C)CO)C(=O)c2cccc(NC(=O)c3ccncc3)c2O[C@H]1CN(C)CC1CCCCC1,36.4% (inactive)
13,C[C@H](CO)N1C[C@H](C)[C@H](CN(C)Cc2ccccc2)Oc2c(NC(=O)c3ccncc3)cccc2C1=O,6.02% (inactive)
14,C[C@@H]1CN([C@H](C)CO)C(=O)Cc2cc(NS(=O)(=O)c3ccc(F)cc3)ccc2O[C@H]1CN(C)Cc1ccc(Cl)c(Cl)c1,-17.9% (inactive)
15,Cc1ccc(S(=O)(=O)N(C)C[C@@H]2Oc3ccc(NS(=O)(=O)c4ccccc4)cc3CC(=O)N([C@H](C)CO)C[C@H]2C)cc1,-18.9% (inactive)
16,Cc1ccc(S(=O)(=O)Nc2ccc3c(c2)CC(=O)N([C@@H](C)CO)C[C@H](C)[C@@H](CN(C)Cc2ccccc2)O3)cc1,30.9% (inactive)
17,C[C@@H]1CN([C@@H](C)CO)C(=O)c2cccc(NC(=O)NC3CCCCC3)c2O[C@H]1CN(C)S(=O)(=O)c1ccc(F)cc1,12.1% (inactive)
18,C[C@@H]1CN([C@@H](C)CO)C(=O)c2cccc(NC(=O)Nc3ccc(C(F)(F)F)cc3)c2O[C@H]1CN(C)Cc1ccc(Cl)c(Cl)c1,-34.5% (inactive)
19,C[C@@H]1CN([C@H](C)CO)C(=O)c2cccc(NC(=O)c3nc4ccccc4s3)c2O[C@@H]1CN(C)S(=O)(=O)c1ccc(Cl)cc1,11.5% (inactive)
20,C[C@H](CO)N1C[C@H](C)[C@H](CN(C)S(=O)(=O)c2ccc(Cl)cc2)Oc2ccc(NS(=O)(=O)c3ccc(Cl)cc3)cc2CC1=O,7.06% (inactive)
21,Cc1noc(C)c1NC(=O)Nc1cccc2c1O[C@@H](CN(C)S(C)(=O)=O)[C@@H](C)CN([C@H](C)CO)C2=O,13.3% (inactive)

row,SMILES,"activity change, negative = cytotoxicity"
1,COc1ccc(CN(C)C[C@H]2Oc3c(NC(=O)Nc4ccc(C(F)(F)F)cc4)cccc3C(=O)N([C@H](C)CO)C[C@@H]2C)cc1,-1.02% (inactive)
2,COc1ccc(CN(C)C[C@H]2Oc3c(NC(=O)c4ccncc4)cccc3C(=O)N([C@@H](C)CO)C[C@@H]2C)cc1,5.41% (inactive)
3,C[C@@H]1CN([C@H](C)CO)C(=O)c2cccc(NC(=O)c3ccncc3)c2O[C@@H]1CN(C)Cc1ccccc1,4.84% (inactive)
4,COc1ccc(CN(C)C[C@@H]2Oc3c(NC(=O)c4ccncc4)cccc3C(=O)N([C@H](C)CO)C[C@H]2C)cc1,-20.7% (inactive)
5,C[C@H](CO)N1C[C@H](C)[C@@H](CN(C)S(=O)(=O)c2ccccc2)Oc2c(NC(=O)c3nc4ccccc4s3)cccc2C1=O,-18.8% (inactive)
6,Cc1ccc(S(=O)(=O)Nc2ccc3c(c2)CC(=O)N([C@H](C)CO)C[C@@H](C)[C@@H](CN(C)Cc2ccccc2)O3)cc1,-12.9% (inactive)
7,C[C@@H]1CN([C@H](C)CO)C(=O)c2cccc(NC(=O)c3ccncc3)c2O[C@H]1CN(C)CC1CCCCC1,-12.3% (inactive)
8,C[C@H]1CN([C@@H](C)CO)C(=O)c2cccc(NC(=O)c3ccncc3)c2O[C@@H]1CN(C)Cc1ccc(Oc2ccccc2)cc1,-16.8% (inactive)
9,C[C@@H]1CN([C@@H](C)CO)C(=O)Cc2cc(NS(=O)(=O)c3ccccc3)ccc2O[C@@H]1CN(C)S(=O)(=O)c1ccc(Cl)cc1,-12.4% (inactive)
10,C[C@@H]1CN([C@H](C)CO)C(=O)c2cccc(NC(=O)c3nc4ccccc4s3)c2O[C@H]1CN(C)S(=O)(=O)c1ccc(Cl)cc1,-10.1% (inactive)
11,C[C@H](CO)N1C[C@H](C)[C@H](CN(C)Cc2ccc3c(c2)OCO3)Oc2c(NC(=O)c3ccncc3)cccc2C1=O,-7.03% (inactive)
12,C[C@H](CO)N1C[C@H](C)[C@H](CN(C)Cc2ccc(Oc3ccccc3)cc2)Oc2c(NC(=O)c3ccncc3)cccc2C1=O,-12.3% (inactive)
13,Cc1ccc(S(=O)(=O)N(C)C[C@H]2Oc3ccc(NS(=O)(=O)c4ccccc4)cc3CC(=O)N([C@H](C)CO)C[C@H]2C)cc1,-0.01% (inactive)
14,Cc1ccc(S(=O)(=O)Nc2ccc3c(c2)CC(=O)N([C@H](C)CO)C[C@H](C)[C@H](CN(C)Cc2ccc(Cl)c(Cl)c2)O3)cc1,-1.7% (inactive)
15,Cc1ccc(S(=O)(=O)Nc2ccc3c(c2)CC(=O)N([C@H](C)CO)C[C@H](C)[C@@H](CN(C)Cc2ccccc2)O3)cc1,-0.645% (inactive)
16,C[C@H](CO)N1C[C@H](C)[C@@H](CN(C)Cc2ccc(-c3ccccc3)cc2)Oc2c(NC(=O)c3ccncc3)cccc2C1=O,-29.7% (inactive)
17,Cc1ccc(S(=O)(=O)N(C)C[C@@H]2Oc3ccc(NS(=O)(=O)c4ccccc4)cc3CC(=O)N([C@@H](C)CO)C[C@H]2C)cc1,-8.95% (inactive)
18,C[C@H](CO)N1C[C@H](C)[C@@H](CN(C)Cc2ccc(C(F)(F)F)cc2)Oc2c(NC(=O)c3ccncc3)cccc2C1=O,-10.8% (inactive)
19,C[C@H](CO)N1C[C@H](C)[C@@H](CN(C)Cc2ccc(Cl)c(Cl)c2)Oc2c(NC(=O)c3ccncc3)cccc2C1=O,-21.9% (inactive)
20,C[C@@H]1CN([C@@H](C)CO)C(=O)c2cccc(NC(=O)c3nc4ccccc4s3)c2O[C@@H]1CN(C)S(=O)(=O)c1ccc(Cl)cc1,-8.38% (inactive)
21,C[C@@H]1CN([C@H](C)CO)C(=O)Cc2cc(NS(=O)(=O)c3ccc(Cl)cc3)ccc2O[C@H]1CN(C)Cc1ccc2c(c1)OCO2,-22% (inactive)

# Same assay, conditions: NIH/3T3 viability, ATP luminescence (CellTiter-Glo), 90 h; at 21 µM (top of the series)
row,SMILES,"activity change, negative = cytotoxicity"
1,C[C@H]1CN([C@@H](C)CO)C(=O)c2cccc(NC(=O)Nc3ccc(C(F)(F)F)cc3)c2O[C@@H]1CN(C)Cc1ccc(Cl)c(Cl)c1,-12.5% (inactive)
2,C[C@@H]1CN([C@@H](C)CO)C(=O)c2cccc(NC(=O)c3ccncc3)c2O[C@H]1CN(C)Cc1ccccc1,6.47% (inactive)
3,Cc1ccc(S(=O)(=O)Nc2ccc3c(c2)CC(=O)N([C@H](C)CO)C[C@H](C)[C@H](CN(C)S(=O)(=O)c2ccc(Cl)cc2)O3)cc1,-27.3% (inactive)
4,C[C@H]1CN([C@@H](C)CO)C(=O)c2cccc(NC(=O)c3ccncc3)c2O[C@H]1CN(C)Cc1ccc2c(c1)OCO2,4.17% (inactive)
5,Cc1ccc(S(=O)(=O)N(C)C[C@H]2Oc3ccc(NS(=O)(=O)c4ccc(Cl)cc4)cc3CC(=O)N([C@@H](C)CO)C[C@@H]2C)cc1,-2.46% (inactive)
6,C[C@H]1CN([C@@H](C)CO)C(=O)c2cccc(NC(=O)c3ccncc3)c2O[C@@H]1CN(C)CC1CCCCC1,-19.3% (inactive)
7,C[C@@H]1CN([C@H](C)CO)C(=O)c2cccc(NC(=O)c3ccncc3)c2O[C@H]1CN(C)Cc1ccc(C(F)(F)F)cc1,-18.8% (inactive)
8,Cc1ccc(S(=O)(=O)N(C)C[C@H]2Oc3ccc(NS(=O)(=O)c4ccc(Cl)cc4)cc3CC(=O)N([C@@H](C)CO)C[C@H]2C)cc1,-13.4% (inactive)
9,C[C@@H]1CN([C@@H](C)CO)C(=O)c2cccc(NC(=O)c3ccncc3)c2O[C@@H]1CN(C)Cc1ccc2c(c1)OCO2,-12.5% (inactive)
10,Cc1ccc(S(=O)(=O)N(C)C[C@@H]2Oc3ccc(NS(=O)(=O)c4ccc(Cl)cc4)cc3CC(=O)N([C@H](C)CO)C[C@H]2C)cc1,-11.6% (inactive)
11,Cc1ccc(S(=O)(=O)N(C)C[C@H]2Oc3c(NC(=O)c4nc5ccccc5s4)cccc3C(=O)N([C@@H](C)CO)C[C@H]2C)cc1,-14.2% (inactive)
